Reference: the NIST ThermoML archive (doi:10.1021/je2010038)

Columns and labels:
[1] = for mass density: Liquid, Vibrating tube method; for surface tension liquid-gas: Pendant drop shape
[2] = xn = mol fraction of the nth substance listed; details: x2 = 0; for surface tension liquid-gas: Pendant drop shape; for mass density: Liquid, Vibrating tube method

NCCO [2-aminoethan-1-ol]
[1]
Details | mass density [kg/m3]
298.15 K, 101 kPa | 1011.9
303.15 K, 101 kPa | 1008
308.15 K, 101 kPa | 1004
313.15 K, 101 kPa | 1000
318.15 K, 101 kPa | 996
323.15 K, 101 kPa | 992
328.15 K, 101 kPa | 988
333.15 K, 101 kPa | 983.9
338.15 K, 101 kPa | 979.8
343.15 K, 101 kPa | 975.8
348.15 K, 101 kPa | 971.6
353.15 K, 101 kPa | 967.5
358.15 K, 101 kPa | 963.4
363.15 K, 101 kPa | 959.2
373.1 K, 700 kPa | 950.9
383.15 K, 700 kPa | 942.3
393.15 K, 700 kPa | 933.5
403.15 K, 700 kPa | 924.7
413.15 K, 700 kPa | 915.7
423.15 K, 700 kPa | 906.4

[1]
Details | surface tension liquid-gas [mN/m]
303.15 K | 48.13
313.15 K | 46.66
323.15 K | 45.58
333.15 K | 44.63

O [water] + NCCO
[2]
Details | surface tension liquid-gas [mN/m]
303.15 K | 71.3
313.15 K | 69.55
323.15 K | 67.98
333.15 K | 66.16

[2]
Details | mass density [kg/m3]
323.15 K, 101 kPa | 988
328.15 K, 101 kPa | 985.7
333.15 K, 101 kPa | 983.2
338.15 K, 101 kPa | 980.5
343.15 K, 101 kPa | 977.7
348.15 K, 101 kPa | 974.8
353.15 K, 101 kPa | 971.8
358.15 K, 101 kPa | 968.6
363.15 K, 101 kPa | 965.3
373.1 K, 700 kPa | 958.6
383.15 K, 700 kPa | 951.2
393.15 K, 700 kPa | 943.4
403.15 K, 700 kPa | 935.1
413.15 K, 700 kPa | 926.3
423.15 K, 700 kPa | 917.1
